Holding throughout (format): functional, cell-based
Experiment [1] relates to RPMI-8226. Put plainly: Antiproliferative activity against human RPMI-8226 cells cultured as 3D-spheroids assessed as reduction in cell viability after 48 hrs by Celltiter-Glo assay. The note with it: RPMI-8226, 48 h.
The nature of experiment [2]: Antiproliferative activity against human MM1.R cells assessed as reduction in cell viability incubated for 72 hrs by XTT assay. The note with it: MM.1R.
For experiment [3], the system named is RPMI-8226. Put plainly: Antiproliferative activity against human RPMI 8226 cells assessed as reduction in cell viability incubated for 72 hrs by XTT assay. As to conditions: RPMI-8226, 72 h.
Experiment [4] deals with MM1.S. The experiment is described as follows: Antiproliferative activity against human MM1.S cells assessed as reduction in cell viability incubated for 72 hrs by XTT assay.

Where only a bound is given, the exact number is not on record here.

Drawing on ChEMBL document CHEMBL4828747, “Structure-Activity Relationships of Withanolides as Antiproliferative Agents for Multiple Myeloma: Comparison of Activity in 2D Models and a 3D Coculture Model” (J Nat Prod, 2021), this text covers IC50 for 31 molecules.

With `CC(=O)OCC1=C(C)C[C@H]([C@@H](C)[C@H]2CC[C@H]3[C@@H]4C[C@H]5O[C@]56[C@@H](O)C=CC(=O)[C@]6(C)[C@H]4CC[C@]23C)OC1=O`, the IC50 in experiment [1] was 1510 nM; in experiment [2] it was 107 nM; in experiment [3], 212 nM; in experiment [4], 114 nM.
Turning to `CC(=O)O[C@H]1C=CC(=O)[C@]2(C)[C@H]3CC[C@]4(C)[C@@H]([C@H](C)[C@H]5CC(C)=C(CO)C(=O)O5)CC[C@H]4[C@@H]3C[C@H]3O[C@]132`, the IC50 in experiment [1] was determined as 1390 nM; in experiment [2], 129 nM; in experiment [3], 203 nM; in experiment [4], 97 nM.
As to `CC(=O)OCC1=C(C)C[C@H]([C@@H](C)[C@H]2CC[C@H]3[C@@H]4C[C@H]5O[C@]56C(=O)C=CC(=O)[C@]6(C)[C@H]4CC[C@]23C)OC1=O`, the concentration for half-maximal inhibition (IC50) in experiment [3] worked out at 777 nM.
In the case of `CC1=C(C)C(=O)O[C@@H]([C@](C)(O)[C@H]2CC[C@H]3[C@@H]4C[C@H]5O[C@]56C(=O)C=CC(=O)[C@]6(C)[C@H]4CC[C@]23C)C1`, the IC50 in experiment [1] is above 40000 nM; in experiment [2] it was 858 nM; in experiment [3], 276 nM; in experiment [4] it was 750 nM.
On to `CC1=C(CO)C(=O)O[C@@H]([C@@H](C)[C@H]2CC[C@H]3[C@@H]4C[C@H](I)[C@]5(O)[C@@H](O)C=CC(=O)[C@]5(C)[C@H]4CC[C@]23C)C1`, for which, in experiment [3], the IC50 was found to be 889 nM.
With `C[C@H]1C[C@H]([C@](C)(O)[C@H]2[C@@H](O)C[C@H]3[C@@H]4C[C@H]5O[C@]56[C@@H](O)C=CC(=O)[C@]6(C)[C@H]4CC[C@]23C)OC(=O)[C@@H]1C`, the IC50 in experiment [1] amounted to 3230 nM; in experiment [2], 425 nM; in experiment [3], 273 nM; in experiment [4], 623 nM.
The matching figures for `CC1=C(CO)C(=O)O[C@@H]([C@@H](C)[C@H]2CC[C@H]3[C@@H]4C[C@H]5O[C@]56[C@@H](O)[C@@H](OS(=O)(=O)O)CC(=O)[C@]6(C)[C@H]4CC[C@]23C)C1`: 8520 nM, 129 nM, 218 nM and 115 nM.
The matching figures for `CC(=O)OCC1=C(C)C[C@H]([C@@H](C)[C@H]2CC[C@H]3[C@@H]4CC=C5C(=O)C=CC(=O)[C@]5(C)[C@H]4CC[C@]23C)OC1=O`: 9930 nM, 236 nM, 458 nM and 246 nM.
The matching figures for `CC(=O)O[C@H]1C=CC(=O)[C@]2(C)[C@H]3CC[C@]4(C)[C@@H]([C@@](C)(O)[C@H]5CC(C)=C(C)C(=O)O5)CC[C@H]4[C@@H]3C[C@H]3O[C@]132`: 820 nM, 350 nM, 252 nM and 206 nM.
In the case of `CC1=C(C)C(=O)O[C@@H]([C@](C)(O)[C@H]2CC[C@H]3[C@@H]4C[C@H]5O[C@]56C(O)C=CC(=O)[C@]6(C)[C@H]4CC[C@]23C)C1` (stereo partly specified), the IC50 in experiment [1] was found to be 1570 nM; in experiment [2], 372 nM; in experiment [3], 297 nM; in experiment [4], 441 nM.
For the molecule `CC1=C(CO)C(=O)O[C@@H]([C@@H](C)[C@H]2CC[C@H]3[C@@H]4C[C@H]5O[C@]56[C@@H](O)[C@@H](N5CCCCC5)CC(=O)[C@]6(C)[C@H]4CC[C@]23C)C1`, the IC50 was 1870 nM in experiment [1], 80 nM in experiment [2], 484 nM in experiment [3] and 55 nM in experiment [4].
`CC(=O)OCC1=C(C)C[C@H]([C@@H](C)[C@H]2CC[C@H]3[C@@H]4CC=C5C(=O)C=C[C@@H](OC(C)=O)[C@]5(C)[C@H]4CC[C@]23C)OC1=O`: the IC50 in experiment [3] is 942 nM.
On the same count and under the same terms, the result for `CC1=C(C)C(=O)O[C@@H]([C@](C)(O)[C@H]2CC[C@H]3[C@@H]4C[C@H]5O[C@]56CC=CC(=O)[C@]6(C)[C@H]4CC[C@]23C)C1` reads 744 nM.
As to `CC1C(=O)O[C@@H]([C@](C)(O)C2=CC[C@@]3(O)[C@@H]4C[C@H]5O[C@]56[C@@H](O)C=CC(=O)[C@]6(C)[C@H]4CC[C@]23C)C[C@@H]1C` (stereo partly specified), the IC50 was found to be 2290 nM in experiment [1], 209 nM in experiment [2], 122 nM in experiment [3] and 338 nM in experiment [4].
As to `CC1=C(C)C(=O)O[C@@H]([C@](C)(O)[C@H]2CC[C@H]3[C@@H]4CC=C5C(=O)C=CC(=O)[C@]5(C)[C@H]4CC[C@]23C)C1`, the IC50 in experiment [3] is 780 nM.
Take `C[C@H]1C[C@H]([C@](C)(O)[C@@]2(O)CC[C@H]3[C@@H]4C[C@H]5O[C@]56[C@@H](O)C=CC(=O)[C@]6(C)[C@H]4CC[C@@]32C)OC(=O)[C@@H]1C`: the IC50 is above 40000 nM in experiment [1], 1090 nM in experiment [2], 506 nM in experiment [3] and 1820 nM in experiment [4].
For the molecule `CC1=C(C)C(=O)O[C@@H]([C@](C)(O)[C@H]2CC[C@H]3[C@@H]4C[C@H](I)[C@]5(O)C(=O)C=CC(=O)[C@]5(C)[C@H]4CC[C@]23C)C1`, the IC50 in experiment [3] worked out at 950 nM.
The same measure, in the same setting: the result for `CC(=O)OCC1=C(C)C[C@H]([C@@H](C)[C@H]2CC[C@H]3[C@@H]4CC=C5C(O)C=CC(=O)[C@]5(C)[C@H]4CC[C@]23C)OC1=O` (stereo partly specified) reads 770 nM.
`CC(=O)O[C@@H]1C=CC(=O)[C@]2(C)[C@H]3CC[C@]4(C)[C@@H]([C@@](C)(O)[C@H]5CC(C)=C(C)C(=O)O5)CC[C@H]4[C@@H]3C[C@H]3O[C@]132`: the IC50 in experiment [1] came to 1640 nM; in experiment [2], 522 nM; in experiment [3], 301 nM; in experiment [4], 601 nM.
`CC1=C(C)C(=O)O[C@@H]([C@](C)(O)[C@H]2CC[C@H]3[C@@H]4C[C@H](I)[C@]5(O)[C@@H](O)C=CC(=O)[C@]5(C)[C@H]4CC[C@]23C)C1`: in experiment [3], the IC50 amounted to 545 nM.
In the case of `CC(=O)OCC1=C(C)C[C@H]([C@@H](C)[C@H]2CC[C@H]3[C@@H]4C[C@H]5O[C@]56[C@@H](O)[C@@H](OC(C)=O)CC(=O)[C@]6(C)[C@H]4CC[C@]23C)OC1=O`, the IC50 in experiment [1] was above 40000 nM; in experiment [2], 374 nM; in experiment [3] it was 252 nM; in experiment [4] it was 229 nM.
The corresponding values for `C[C@H]1C(=O)O[C@@H]([C@](C)(O)[C@H]2CC[C@H]3[C@@H]4C[C@H]5O[C@]56[C@@H](O)C=CC(=O)[C@]6(C)[C@H]4CC[C@]23C)C[C@@]1(C)O` are 12300 nM, 997 nM, 451 nM and 1290 nM.
On to `CC1=C(C)C(=O)O[C@@H]([C@](C)(O)[C@H]2[C@@H](O)C[C@H]3[C@@H]4C[C@H](I)[C@]5(O)[C@@H](O)C=CC(=O)[C@]5(C)[C@H]4CC[C@]23C)C1`, for which the IC50 in experiment [3] was determined as 609 nM.
Turning to `CC(=O)O[C@H]1C=CC(=O)[C@]2(C)[C@H]3CC[C@@]4(C)[C@H]([C@@H]3C[C@H]3O[C@]132)[C@H](OC(C)=O)C[C@@H]4[C@@](C)(O)[C@H]1CC(C)=C(C)C(=O)O1`, the IC50 in experiment [1] came out at 3420 nM; in experiment [2], 322 nM; in experiment [3], 217 nM; in experiment [4], 370 nM.
As for `CC1=C(CO)C(=O)O[C@@H]([C@@H](C)[C@H]2CC[C@H]3[C@@H]4C[C@H]5O[C@]56[C@@H](O)[C@@H](n5ccnc5)CC(=O)[C@]6(C)[C@H]4CC[C@]23C)C1`, the half-maximal inhibitory concentration (IC50) worked out at 2620 nM in experiment [1], 75 nM in experiment [2], 270 nM in experiment [3] and 60 nM in experiment [4].
With `C[C@@H]1[C@@H](C)C(=O)OC12C[C@](C)(O)C1[C@H](C[C@H]3[C@@H]4C[C@H]5O[C@]56[C@@H](O)C=CC(=O)[C@]6(C)[C@H]4CC[C@]13C)O2` (stereo partly specified), the IC50 in experiment [1] came to 4650 nM; in experiment [2], 366 nM; in experiment [3], 239 nM; in experiment [4], 559 nM.
Consider `CC1=C(C)C(=O)O[C@@H]([C@](C)(O)[C@H]2CC[C@H]3[C@@H]4CC=C5[C@H](O)C=CC(=O)[C@]5(C)[C@H]4CC[C@]23C)C1`, for which the IC50 in experiment [3] came to 768 nM.
On the same count and under the same terms, the result for `C[C@H]1[C@H]([C@@H](O)[C@](C)(O)[C@H]2[C@@H](O)C[C@H]3[C@@H]4C[C@H]5O[C@]56[C@@H](O)C=CC(=O)[C@]6(C)[C@H]4CC[C@]23C)OC(=O)[C@@H]1C` reads 601 nM.
For `CC(C)C[C@H](NC(=O)[C@H](Cc1ccccc1)NC(=O)c1cnccn1)B(O)O` [BORTEZOMIB], the IC50 in experiment [1] was 6.4 nM; in experiment [2], 2.4 nM; in experiment [3], 4.7 nM; in experiment [4], 2.5 nM.
The corresponding values for `CC1=C(CO)C(=O)O[C@@H]([C@@H](C)[C@H]2CC[C@H]3[C@@H]4C[C@H]5O[C@]56[C@@H](O)C=CC(=O)[C@]6(C)[C@H]4CC[C@]23C)C1` [WITHAFERIN A] are 1600 nM, 263 nM, 258 nM and 53 nM.
The corresponding values for `CC1=C(C)C(=O)O[C@@H]([C@](C)(O)[C@H]2CC[C@H]3[C@@H]4C[C@H]5O[C@]56[C@@H](O)C=CC(=O)[C@]6(C)[C@H]4CC[C@]23C)C1` [WITHANOLIDE D] are 980 nM, 106 nM, 76 nM and 107 nM.
